{"source": "patent US20160081938A1", "about": "“ACAMPROSATE FORMULATIONS, METHODS OF USING THE SAME, AND COMBINATIONS COMPRISING THE SAME” (Synchroneuron Inc., priority 2013, published 2016)", "key": {"[1]": {"assay": "Simulated sustained release in a dog model", "assay_type": "in vivo", "settings": "sustained presentation over eight hours", "experimental": "It has been discovered that the shape of the PK curve and not just the AUC can make a difference to efficacy. Specifically, having a plasma concentration above a threshold for several hours per day (e.g., 4-8 hours) may be more efficacious than maintaining a concentration just below that threshold for 24 hours a day. […] In this model, the drug conserved by avoiding a high single dose and high Cmax was distributed across several hours, giving a several hour period in which the plasma concentration of acamprosate was higher than the plasma concentration after administration of a single dose of the immediate release version.\nIn a dog study of simulated sustained release of acamprosate it was shown that through sustained release a higher residence time above a threshold can be attained than by giving the same dose all at once. Combining the results from the dog study with the implications of the reported human cases we contemplate that acamprosate delivered by a sustained release system can relieve symptoms of TD and other neuropsychiatric disorders given once or twice a day. […] Thus it appears that a total daily dose of less than one gram of sustained release acamprosate, given on a twice a day basis, or perhaps even on a once a day basis, could be adequate to treat TD in the case examples. […]"}, "[2]": {"settings": "high solubility and low permeability; cited from earlier work"}}, "data": [{"smiles": "CC(=O)NCCCS(=O)(=O)O", "note": "[Acamprosate, 3-(acetylamino)-1-propanesulfonic acid]", "values": [{"measurement": "residence time above a threshold concentration vs immediate release of the same dosage", "setting": "[1]", "value": "significantly longer residence time"}, {"measurement": "Biopharmaceuticals Classification System (BCS) class", "setting": "[2]", "value": "Class III"}]}]}
